The test system of data set [1] is spontaneous uterine contractions. Kind of data set: Inhibition of spontaneous uterine contractions in anesthetized late-term pregnant rat. Format: in vivo. The following applies: oral route, 10, 30 or 60 mg/kg. The text has this:
Late-term pregnant (certified at days 19-21 of pregnancy) Sprague Dawley CD (SD) BR female rats (Charles River, Calco, Italy), weighing 350-400 g were anesthetized with urethane (1.05 g/kg, i.p.) and placed on a homeothermic operating table. A midline incision at the hypogastrium level was made, one pregnant uterine horn exposed and its tubal end (near the ovary) was closed by a ligature with surgical silk. Corresponding to the fetus close to the ovary, the uterine-horn wall was incised taking care not to injure the adjacent placenta and PE240 tubing with a latex balloon (9 mm length when empty, capacity 0.1 mL; Radnoti, Monrovia, Calif., USA) on the top was inserted into the lumen and secured to the uterine wall with surgical silk. After filling the internal cavity of the latex balloon with 0.1 mL of sterile physiological saline solution, the catheter was connected to an amplifying/recording system (MacLab, ADInstruments Pty Ltd, Castle Hill, Australia) via a P231D Gould-Statham pressure transducer. […] After the surgical preparation, a 30-min stabilization period was observed and then the effects of increasing doses of compounds of the present invention (given as 10-min i.v. infusion, bolus i.v. or p.o.) were evaluated by measuring the resulting uterine contractions. For the i.v. administration (infusion or bolus) the uterine contractile activity was quantified by calculating the AUC during the 10-min injection period. The percent variation of the AUC values relative to the spontaneous uterine response observed after each compound administration was calculated in comparison to the value recorded before the first dose-administration (basal value). The effect of test compounds of the present invention was evaluated by comparing pre- and post-treatment luminal uterine pressure values. […] Statistical differences between treatment groups at each time-point were determined by using one-way ANOVA followed by Tukey test. […] Contractions were continuously recorded and area-under-the-curve (AUC) integrated over 10-min time intervals.

The nature of data set [2]: Qualitative solubility/crystallisation tests on 15 mg scale. Format: physicochemical.
Data set [3] in a line: Isomeric interconversion in oral and intravenous dose formulations (HPLC). Format: physicochemical. The following applies: oral (Labrasol:water 1:1) and intravenous (NP3S) dose formulations, pre- and post-dose.
The conditions of data set [4]: nominal 30 mg/kg. The method, then: The animals used in this study were Sprague-Dawley, Crl: CD®BR albino rats. All animals were supplied by Charles River UK Ltd (Margate, Kent, UK). Animals were in the weight range 200-260 g and were approximately 2 months old. Rats were given a unique identity number and were identified by unique tail markings plus cage location.
The dose groups were as follows: 4 female were given an oral dose and 4 female were given an intravenous dose.
Dose formulations were prepared in an appropriate matrix; intravenous doses were prepared in NP3S, whilst oral doses were prepared in Labrasol:water (1:1 v/v).

SMILES strings stand for the structures.

In the case of `CO/N=C1\C[C@@H](CO)N(C(=O)c2ccc(-c3ccccc3C)cc2)C1` [(3E,5S)-5-(hydroxymethyl)-1-[(2′-methyl-1,1′-biphenyl-4-yl)carbonyl]pyrrolidin-3-one O-methyloxime, reference compound], in data set [1] (any time during the 170-180 minutes observation), the “inhibition of uterine contraction (in words)” value is “no inhibition of uterine contraction”.

With `CO/N=C1/C[C@@H](CO)N(C(=O)c2ccc(-c3ccccc3C)cc2)C1` [(3Z,5S)-5-(hydroxymethyl)-1-[(2′-methyl-1,1′-biphenyl-4-yl)carbonyl]pyrrolidin-3-one O-methyloxime], the “Dissolves in:” value is given as 40 vol in data set [2] (solvent DIPE, hot); 4 vol in data set [2] (solvent IPA, hot); 4 vol in data set [2] (solvent MIBK, hot); 4 vol in data set [2] (solvent THF, cold); “insoluble in 20 vol” in data set [2] (solvent heptanes); 6 vol in data set [2] (solvent tBuOH, hot). Moreover, the “Dissolves in:” value in data set [2] (solvent toluene, cold) amounted to 2 vol. Also, the “interconversion to E-isomer during dose preparation or administration” value in data set [3] is “no detectable interconversion”. The Uterine contractions inhibition in data set [1] (5 to 15 min after administration) came out at 15%; in data set [1] (170-180 minutes after administration), 42%.

As for `CO/N=C1/C[C@@H](CO)N(C(=O)c2ccc(-c3ccccc3C)cc2)C1` [[^14C]-(3Z,5S)-5-(hydroxymethyl)-1-[(2′-methyl-1,1′-biphenyl-4-yl)carbonyl]pyrrolidin-3-one O-methyloxime], the “isomeric interconversion in vivo” value in data set [4] (female rats, oral or intravenous dose) is given as “no detectable isomeric interconversion”. In data set [4] (rat plasma up to 6 hours after oral or intravenous administration), the “presence of [14C]-E-isomer in plasma” value is “no evidence”.
